The nature of the data set: in vitro. As to conditions: human, hela cells, % viability.
As to `CN1C(=O)C2(N=C(N)NC(Nc3ccc(F)cc3)=N2)c2ccccc21` (stereo not drawn) [CBK270285], the viability at 28.5 h, 10 µM is 94.8%.
Next, `COc1ccc(-c2noc(CN(C)C(=O)c3cccs3)n2)cc1` [CBK270286]: 89.6%; `CCOc1ccc(S(=O)(=O)N2CCC(C(=O)N3CCOCC3)CC2)cc1Cl` [CBK270288]: 93.8%; `CCn1c(SCC(N)=O)nnc1C(C)Oc1ccc(C)c(C)c1` (stereo not drawn) [CBK270289]: 88.4%.
In the case of `Cc1ccnc(SCc2ccc(F)cc2Cl)n1` [CBK270290], the viability at 28.5 h, 10 µM was 87.4%.
Consider `c1ccc(SCc2csc(-c3ccc4c(c3)OCO4)n2)nc1` [CBK270294], for which the viability at 28.5 h, 10 µM worked out at 87.7%.
Next, `CCN1CCN(C(=O)C2CC=CCC2C(=O)O)CC1` (stereo not drawn) [CBK270295]: 91.6%; `O=S(=O)(c1ccc(Cl)s1)N1CCN(c2ccccn2)CC1` [CBK270305]: 110%; `CCn1cc(S(=O)(=O)NCc2ccccc2F)cn1` [CBK270306]: 91.6%.
With `COc1ccc(C(C)NC(=O)C2CCCCC2C(=O)O)cc1OC` (stereo not drawn) [CBK270309], the viability at 28.5 h, 10 µM was 91.1%.
In the case of `CCN1CCN(C(=O)C2CC(C)=C(C)CC2C(=O)O)CC1` (stereo not drawn) [CBK270311] it was 87.1%; in that of `CCc1c(C)sc(NC(=O)CSc2nnnn2C)c1C(=O)OC` [CBK270312], 90.7%; in that of `CCOc1ccc(S(=O)(=O)Nc2cnccn2)cc1` [CBK270313], 121%.
For the compound `CCc1ccc(NS(=O)(=O)c2cnn(CC)c2)cc1` [CBK270314], the viability at 28.5 h, 10 µM was 101%.
In the case of `CCCCS(=O)(=O)N1CCN(CCc2ccccc2)CC1` [CBK270316] it was 87.3%; in that of `CC(NC(=O)c1ccc(F)cc1Cl)c1ccccc1` (stereo not drawn) [CBK270317], 89.3%.
`O=C(O)C1C2C=CC(C2)C1C(=O)N1CCN(Cc2ccc(Cl)cc2)CC1` (stereo not drawn) [CBK270318]: the viability at 28.5 h, 10 µM was found to be 83.8%.
For `O=C(NC1CC1)c1ccsc1NC(=O)C1C2C=CC(C2)C1C(=O)O` (stereo not drawn) [CBK270322], the viability at 28.5 h, 10 µM was 98.7%.
For `COc1cc(NC(=O)Nc2ccccc2OC)c(OC)cc1Cl` [CBK270329], the viability at 28.5 h, 10 µM was found to be 95.7%.
Regarding `CCNS(=O)(=O)c1ccc(NC(=O)Nc2ccccc2OC)cc1` [CBK270331], the viability at 28.5 h, 10 µM worked out at 87.8%.
Consider `O=C(NCCN1CCCCC1)c1cccc(Oc2ccccc2)c1` [CBK270335], for which the viability at 28.5 h, 10 µM is 98.2%.
As to `O=C(O)C1C2CCC(CC2)C1C(=O)N1CCN(Cc2ccccc2Cl)CC1` (stereo not drawn) [CBK270336], the viability at 28.5 h, 10 µM was 100%.
As to `COCc1cc(C)nc(SCC(=O)O)c1C#N` [CBK270463], the viability at 28.5 h, 10 µM was determined as 88.2%.
In the case of `O=C(O)c1ccc(N2C(=O)CC(N3CCN(CCO)CC3)C2=O)cc1` (stereo not drawn) [CBK271638] it was 88.9%; in that of `O=C(CSc1ncccc1C(=O)O)c1ccccc1` [CBK273178], 94.1%; in that of `CCc1nnc(NC(=O)c2cccc(F)c2)s1` [CBK273362], 90.4%.
Next, `O=C(O)c1ccccc1SC1CC(=O)N(c2ccccc2)C1=O` (stereo not drawn) [CBK273885]: 94.6%; `Cc1nc2ccccc2c(C(=O)O)c1-c1ccccc1` [CBK274187]: 91.5%.
With `CCOc1ccc(NC(=O)C2CC=CCC2C(=O)O)cc1` (stereo not drawn) [CBK274682], the viability at 28.5 h, 10 µM stood at 110%.
Next, `Cc1ccc2ncnc(NC(CC(C)C)C(=O)O)c2c1` (stereo not drawn) [CBK275388]: 109%; `O=C(O)C(CC1COc2ccccc2O1)C(=O)O` (stereo not drawn) [CBK276280]: 89.6%.
Take `CN(Cc1ccccc1)S(=O)(=O)c1ccc(OCC(=O)O)cc1` [CBK276426]: the viability at 28.5 h, 10 µM came to 97.9%.
Regarding `O=C(O)CCCSCC(=O)Nc1ccccc1` [CBK276905], the viability at 28.5 h, 10 µM worked out at 88.4%.
In the case of `O=C(NCCCn1ccnc1)c1cc2ncc(Br)cn2n1` [CBK277080], the viability at 28.5 h, 10 µM stood at 97.6%.
As for `COc1ccc(NC(=O)CSc2ncnc3sc(C)cc23)c(OC)c1` [CBK277541], the viability at 28.5 h, 10 µM stood at 100%.
As for `Fc1ccc(COc2ccccc2CNCCN2CCOCC2)cc1` [CBK278150C], the viability at 28.5 h, 10 µM amounted to 91.5%.
`c1ccc2c(c1)n(CCN1CCOCC1)c1nc(C34CC5CC(CC(C5)C3)C4)cn21` [CBK278154C]: the viability at 28.5 h, 10 µM was 105%.
Regarding `O=C(Nc1ccc2c(O)cc(S(=O)(=O)O)cc2c1)Nc1ccc2c(O)cc(S(=O)(=O)O)cc2c1` [CBK278157N], the viability at 28.5 h, 10 µM turned out to be 91.1%.
Turning to `Clc1ccc(OCc2ccccc2)c(CNCCN2CCOCC2)c1` [CBK278162C], the viability at 28.5 h, 10 µM turned out to be 93.4%.
As for `NNc1ccc(/C=C/c2ccc(NN)cc2S(=O)(=O)O)c(S(=O)(=O)O)c1` [CBK278163N], the viability at 28.5 h, 10 µM was 91.1%.
In the case of `O=S(=O)(O)c1cc(O)c2c(S(=O)(=O)O)cc(S(=O)(=O)O)cc2c1` [CBK278164N] it was 94.9%; in that of `CN1C2CCC1CC(OC(=O)CN1CCCCC1)C2` (stereo not drawn) [CBK278166C], 109%.
For `Cc1ccc(CNCCNCCO)s1` [CBK278168C], the viability at 28.5 h, 10 µM is 108%.
In the case of `Brc1ccc(OCc2ccccc2)c(CNCCN2CCOCC2)c1` [CBK278171C] it was 97%.
In the case of `Cc1cc(C)c(NC(=O)C2CCCN2CCCN(C)C)c(C)c1` (stereo not drawn) [CBK278172F] it was 97.1%; in that of `CC(CNC(=O)c1cncc(O)c1)NC(=O)c1cncc(O)c1` (stereo not drawn) [CBK278174], 89.2%; in that of `Nc1cc(S(=O)(=O)O)c2cccnc2c1O` [CBK278176], 75.4%.
In the case of `COc1ccc(Cl)cc1NC(=O)CCN1CCN(C)CC1` [CBK278177C] it was 91%.
Consider `CCOC(=O)Nc1ccc2c(c1)N(C(=O)CN1CCN(C)CC1)c1ccccc1CC2` [CBK278194C], for which the viability at 28.5 h, 10 µM was 88.7%.
Turning to `OCCN1CCN(CC(O)COc2ccc(Cl)cc2Cl)CC1` (stereo not drawn) [CBK278198C], the viability at 28.5 h, 10 µM was 108%.
As to `Fc1ccc(-c2ccc(CNCCCN3CCOCC3)o2)cc1` [CBK278199C], the viability at 28.5 h, 10 µM came out at 84.5%.
On to `C[N+]1(C)CCN(C(=O)CCC(=O)N2CC[N+](C)(C)CC2)CC1` [CBK278200I], for which the viability at 28.5 h, 10 µM stood at 94.4%.
Turning to `CCN1/C(=C/C(=C/c2sc3ccccc3[n+]2CCCS(=O)(=O)[O-])OC)Sc2ccccc21` [CBK278203], the viability at 28.5 h, 10 µM was 99.7%.
In the case of `CN(C)CC(=O)N1c2ccccc2CCc2ccc(NC(=O)c3ccc([N+](=O)[O-])cc3)cc21` [CBK278207C] it was 87.4%.
`COc1ccc2ccccc2c1CNCCCN1CCOCC1` [CBK278209C]: the viability at 28.5 h, 10 µM is 93.8%.
On to `Cc1ncc(CO)c(CN)c1O` [CBK278211C], for which the viability at 28.5 h, 10 µM stood at 86.8%.
Consider `c1ccc(COc2ccccc2CNCCN2CCOCC2)cc1` [CBK278212C], for which the viability at 28.5 h, 10 µM is 90.7%.
Take `CN(C)CCNCc1ccccc1OC1CCCC1` [CBK278214C]: the viability at 28.5 h, 10 µM was 111%.
Next, `CN(C)CCNCc1cccc(OCc2ccccc2)c1` [CBK278216C]: 89.7%; `C(CSC1=NCCN1)CSC1=NCCN1` [CBK278217B]: 106%.
Next, `CN1CCN(CCC(=O)N2c3ccccc3Sc3ccc(C(F)(F)F)cc32)CC1` [CBK278221C]: 103%; `C1CN=C(SCCCCSC2=NCCCN2)NC1` [CBK278223B]: 107%.
As for `c1ccc(COc2cccc(CNCCN3CCOCC3)c2)cc1` [CBK278226C], the viability at 28.5 h, 10 µM is 95.8%.
`Clc1ccc(COc2cccc(CNCCN3CCOCC3)c2)cc1` [CBK278227C]: the viability at 28.5 h, 10 µM worked out at 85%.
For `CC(=O)c1c(-c2ccc(C)cc2)nc2n(CCN3CCCCC3)c3ccccc3n12` [CBK278231C], the viability at 28.5 h, 10 µM was determined as 101%.
Next, `COc1ccc(OCC(O)CN2CCN(c3ccccn3)CC2)cc1` (stereo not drawn) [CBK278239C]: 81.8%; `Cc1nc2n(CCN3CCCCC3)c3ccccc3n2c1C(=O)c1cccs1` [CBK278242B]: 88.6%.
In the case of `OC(COCc1ccc2c(c1)OCO2)CN1CCN(c2ccccn2)CC1` (stereo not drawn) [CBK278246C] it was 105%.
On to `Cc1cc(OCC(O)CN2CCN(CCO)CC2)cc(C)c1Cl` (stereo not drawn) [CBK278248C], for which the viability at 28.5 h, 10 µM was 92.7%.
In the case of `Cc1cc(OCC(O)CN2CCN(CCO)CC2)ccc1C(C)C` (stereo not drawn) [CBK278254C], the viability at 28.5 h, 10 µM came to 89%.
For `Cc1nn2c3ccccc3nc2n1CCN1CCCCC1` [CBK278256C], the viability at 28.5 h, 10 µM turned out to be 95.3%.
For the compound `O=C(CCN1CCN2CCCCC2C1)N1c2ccccc2Sc2ccc(Cl)cc21` (stereo not drawn) [CBK278257F], the viability at 28.5 h, 10 µM came out at 86.3%.
Turning to `Cc1nc2n(CCN3CCCCC3)c3ccccc3n2n1` [CBK278258C], the viability at 28.5 h, 10 µM is 91.5%.
Regarding `O=C(c1ccccc1)c1cc[n+](CCC[n+]2ccc(C(=O)c3ccccc3)cc2)cc1` [CBK278270B], the viability at 28.5 h, 10 µM is 91.5%.
Turning to `O=[N+]([O-])c1cc([N+](=O)[O-])c(Nc2ccncc2)c([N+](=O)[O-])c1Nc1ccncc1` [CBK278276], the viability at 28.5 h, 10 µM was found to be 96.1%.
As for `CC(O)CNCCNCc1cccs1` (stereo not drawn) [CBK278279C], the viability at 28.5 h, 10 µM amounted to 109%.
Take `CC(=C\C(=O)O)/C(=C\c1ccc(Br)cc1)C(=O)O` [CBK278280N]: the viability at 28.5 h, 10 µM was 88.1%.
In the case of `c1ccc2c(c1)nc1n2CCN1CCN1CCCCC1` [CBK278283C], the viability at 28.5 h, 10 µM was 98.5%.
Next, `CC(=C\C(=O)O)/C(=C/c1ccc2ccccc2n1)C(=O)O` [CBK278294N]: 87.7%.
Take `OC(COCc1ccccc1)CN1CCN(Cc2ccccc2)CC1` (stereo not drawn) [CBK278297C]: the viability at 28.5 h, 10 µM is 107%.
`CN1CCc2c1nc1ccccc1c2NC(=O)CN1CCCCCC1` [CBK278298G]: the viability at 28.5 h, 10 µM amounted to 90.6%.
Consider `O=C(CN1CCN(C(c2ccccc2)c2ccccc2)CC1)Nc1c2c(nc3ccccc13)CCC2` [CBK278299G], for which the viability at 28.5 h, 10 µM was found to be 92.7%.
In the case of `O=C(O)C(=N\Nc1ccccc1)/C(=N/Nc1ccccc1)C(=O)O` [CBK278303N] it was 100%; in that of `c1csc(CNCCCN2CCOCC2)c1` [CBK278305C], 91.1%.

One may read the viability as a read-out of living cells in per cent, often relative to untreated cells.

(Values after paper PMC12040169 (PLOS Biology, 2025).)
